pIC50: −log10 of the molar value.

Experimental findings from patent US8598168B2 (MethylGene Inc., priority 2006, dated 2013) are described below.

The test system of data set [1] is p21 promoter-driven luciferase in HCT116 cells. The data set is described as follows: p21WAF1/Cip1 Assay (p21 promoter-driven luciferase reporter). It is filed as cell-based, human. Particulars: 16 hours treatment, value designated as reference. The protocol: HCT116 cells were stably transfected with reporter plasmids encoding the p21 promoter-driven luciferase. Cells were treated with indicated concentration of HDAC inhibitors for 16 hours before cells were harvested and luciferase activity analyzed. The effective concentration (EC) of MS-275 was designated as 1 μM. The ability of HDAC inhibitor was compared with that of MS-275 (T. Suzuki, et. al J. Med. Chem., 1999, 3001-3003).

In data set [2] the target is HDAC-1 (Homo sapiens, UniProt Q13547). The experiment in a line: Inhibition of Histone Deacetylase Enzymatic (HDAC-1) Activity. Type of data set: biochemical. Particulars: Table 21. How it is done:
The following protocol was used to assay the compounds of the invention.
The mixture was pre-incubated for 5 minutes at room temperature. The reaction was started by bringing the temperature to 37° C. and adding 15 μl substrate. Total reaction volume was 50 μl.

Data set [3] relates to human colon cancer HCT116 cells. The experiment in a line: MTT Assay. It is filed as cell-based. Conditions: HCT-116, 72 hours, Table 21. How it is done: Compounds at various concentrations were added to human colon cancer HCT116 cells plated in 96-well plates. Cells were incubated for 72 hours at 37° C. in 5% CO2 incubator. MTT (3-[4,5-dimethylthiazol-2-yl]-2,5 diphenyl tetrazolium bromide, Sigma) was added at a final concentration of 0.5 mg/ml and incubated with the cells for 4 hours before an equal volume of solubilization buffer (50% N,N-dimethylformamide, 20% SDS, pH 4.7) was added onto cultured cells. After overnight incubation, solubilized dye was quantified by colorimetric reading at […] using a reference at 630 nM. OD values were converted to cell numbers according to a standard growth curve of the relevant cell line. The concentration which reduces cell numbers to 50% of those of DMSO-treated cells is determined as MTT IC50.

The nature of data set [4]: Log D (comparison with previously disclosed compounds). Particulars: pH 7.4. Type of data set: physicochemical.

Chain of HDAC-1 (Q13547 whole entry): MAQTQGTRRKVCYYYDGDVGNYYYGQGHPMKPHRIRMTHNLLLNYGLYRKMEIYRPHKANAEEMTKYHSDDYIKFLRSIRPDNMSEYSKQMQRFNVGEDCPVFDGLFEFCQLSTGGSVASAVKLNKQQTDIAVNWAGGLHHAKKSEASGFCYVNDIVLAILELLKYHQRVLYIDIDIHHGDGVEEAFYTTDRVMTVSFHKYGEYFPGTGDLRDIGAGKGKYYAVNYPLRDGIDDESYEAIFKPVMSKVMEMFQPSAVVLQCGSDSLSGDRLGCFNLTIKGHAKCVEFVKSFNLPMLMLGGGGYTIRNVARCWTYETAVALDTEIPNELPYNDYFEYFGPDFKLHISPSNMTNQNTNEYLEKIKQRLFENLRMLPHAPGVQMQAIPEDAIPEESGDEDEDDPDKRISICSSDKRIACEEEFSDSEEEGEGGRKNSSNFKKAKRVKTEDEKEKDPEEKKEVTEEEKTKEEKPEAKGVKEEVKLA

Take `Nc1ccccc1NC(=O)c1ccc(CNC(=O)OCc2cccnc2)cc1` [MS-275]: the “effective concentration (EC) to induce p21 expression” value in data set [1] worked out at 1 µM.

What is called pIC50 is the IC50 on a negative log10 scale, so that one unit is a factor of ten. What is called logD is the decadic logarithm of the distribution of all forms, ionised or not, between an organic phase and buffer at a given pH. Consider `CC(C)N1CCN(c2ccc(C(=O)Nc3cc(-c4cccs4)ccc3N)cc2)CC1` [compound 102, N-(2-amino-5-(thiophen-2-yl)phenyl)-4-(4-isopropyl-piperazin-1-yl)benzamide], for which the pIC50 in data set [2] and in data set [3] was > 6.00 throughout. This compound also returned a logD in data set [4] of 1.52.

In the case of `COCCN1CCN(Cc2ccc(C(=O)Nc3cc(-c4cccs4)ccc3N)cc2)CC1` [compound 13, N-(2-amino-5-(thiophen-2-yl)phenyl)-4-((4-(2-methoxyethyl)piperazin-1-yl)methyl)benzamide], the pIC50 in data set [2] and in data set [3] was > 6.00 in each case. This compound had a logD in data set [4] of 2.22.

As to `CN(C)[C@@H]1CCN(Cc2ccc(C(=O)Nc3cc(-c4cccs4)ccc3N)cc2)C1` [compound 9, (R)—N-(2-Amino-5-(thiophen-2-yl)phenyl)-4-((3-(dimethylamino)pyrrolidin-1-yl)methyl)benzamide], the pIC50 in data set [2] and in data set [3] was > 6.00 each time. In data set [4], the logD was 2.11.

For the compound `Nc1ccc(-c2cccs2)cc1NC(=O)c1ccc(N2CCN(C3CCCC3)CC2)cc1` [compound 103, N-(2-amino-5-(thiophen-2-yl)phenyl)-4-(4-cyclopentyl-piperazin-1-yl)-benzamide], the pIC50 in data set [2] and in data set [3] was > 6.00 each time. For the same compound, the logD in data set [4] turned out to be 2.68.

Consider `CC(=O)N[C@@H]1CCN(Cc2ccc(C(=O)Nc3cc(-c4cccs4)ccc3N)cc2)C1` [compound 84, (R)-4-((3-acetamido-pyrrolidin-1-yl)methyl)-N-(2-amino-5-(thiophen-2-yl)phenyl)-benzamide], for which the pIC50 in data set [2] and in data set [3] was > 6.00 in each case. This compound also returned a logD in data set [4] of 2.15.

For the compound `CN(C)CCOC(=O)NCc1ccc(C(=O)Nc2cc(-c3cccs3)ccc2N)cc1` [compound 221, 2-(Dimethylamino)ethyl 4-(2-amino-5-(thiophen-2-yl)phenylcarbamoyl)benzylcarbamate], the pIC50 in data set [2] and in data set [3] was > 6.00 throughout. The logD in data set [4] worked out at 1.85.

Turning to `CC(=O)N[C@H]1CCN(Cc2ccc(C(=O)Nc3cc(-c4cccs4)ccc3N)cc2)C1` [compound 87, (S)-4-((3-acetamido-pyrrolidin-1-yl)methyl)-N-(2-amino-5-(thiophen-2-yl)phenyl)-benzamide], the pIC50 in data set [2] and in data set [3] was > 6.00 throughout. Moreover, the logD in data set [4] was determined as 2.15.

With `Nc1ccc(-c2cccs2)cc1NC(=O)c1ccc(CN2CCN(CCn3ccnc3)CC2)cc1` [compound 80, 4-((4-(2-(1H-imidazol-1-yl)ethyl)-piperazin-1-yl)-methyl)-N-(2-amino-5-(thiophen-2-yl)phenyl)-benzamide], the pIC50 in data set [2] and in data set [3] was > 6.00 in each case. Also, the logD in data set [4] turned out to be 1.54.

Take `CN(C)CCN(C)C(=O)NCc1ccc(C(=O)Nc2cc(-c3cccs3)ccc2N)cc1` [compound 222, N-(2-amino-5-(thiophen-2-yl)phenyl)-4-((3-(2-(dimethylamino)ethyl)-3-methylureido)methyl)benzamide]: the pIC50 in data set [2] and in data set [3] was > 6.00 each time. Moreover, the logD in data set [4] was determined as 1.05.

As to `CN(C)CCN(C)Cc1ccc(C(=O)Nc2cc(-c3cccs3)ccc2N)cc1` [compound 18, N-(2-amino-5-(thiophen-2-yl)phenyl)-4-(((2-(dimethylamino)ethyl)(methyl)amino)methyl)benzamide], the pIC50 in data set [2] and in data set [3] was > 6.00 in each case. Also, the logD in data set [4] was 1.64.

Regarding `Nc1ccc(-c2cccs2)cc1NC(=O)c1ccc(N2CCC(N3CCOCC3)CC2)cc1` [compound 104, N-(2-amino-5-(thiophen-2-yl)phenyl)-4-(4-morpholino-piperidin-1-yl)benzamide], the pIC50 in data set [2] and in data set [3] was > 6.00 each time. Besides, the logD in data set [4] is 2.51.

On to `Nc1ccc(-c2cccs2)cc1NC(=O)c1ccc(CN2CC[C@H](O)C2)cc1` [compound 82, (S)-N-(2-amino-5-(thiophen-2-yl)phenyl)-4-((3-hydroxy-pyrrolidin-1-yl)methyl)-benzamide], for which the pIC50 in data set [2] and in data set [3] was > 6.00 in each case. Moreover, the logD in data set [4] came out at 2.6.

On to `Nc1ccc(-c2cccs2)cc1NC(=O)c1ccc(CN2CCC(N3CCOCC3)CC2)cc1` [compound 77, N-(2-amino-5-(thiophen-2-yl)phenyl)-4-((4-morpholino-piperidin-1-yl)-methyl)-benzamide], for which the pIC50 in data set [2] and in data set [3] was > 6.00 each time. The logD in data set [4] came to 2.59.

For `Nc1ccc(-c2cccs2)cc1NC(=O)c1ccc(CN2CCC[C@@H](O)C2)cc1` [compound 11, (R)-N-(2-amino-5-(thiophen-2-yl)phenyl)-4-((3-hydroxypiperidin-1-yl)methyl)benzamide], the pIC50 in data set [2] and in data set [3] was > 6.00 throughout. This compound also registered a logD in data set [4] of 3.03.

Consider `CCN(C)Cc1ccc(C(=O)Nc2cc(-c3cccs3)ccc2N)cc1` [compound 14, N-(2-amino-5-(thiophen-2-yl)phenyl)-4-((ethyl(methyl)amino)methyl)benzamide], for which the pIC50 in data set [2] and in data set [3] was > 6.00 in each case. Further, in data set [4], the logD came to 3.2.
